“Also recorded” adds a separate entry of the source.
Assays:
[1] = tested on: human colorectal carcinoma cells LS174T; conditions: single intratumoral injection, day 22, control tumor 3.2 cm
Procedure: Tumors were allowed to grow to approximately 0.5 cm in diameter.
On day one, two of the four tumor-bearing mice received a single intratumoral injection of approximately 100 μl Indium-111-oxine. Mice were placed in an ionization chamber, and radioactivity was recorded after the injection and then daily for 28 days. On each day, radioactivity was corrected for decay, and the percent of injected dose retained in the animal was calculated and recorded. Animals were also weighed daily in a calibrated balance.
On day one, all four mice were lightly anesthetized and photographs taken. Mice receiving Indium-111-oxine were also imaged with a gamma camera 28 days later. This qualitatively recorded the distribution of radioactivity, 28 days after it was injected.The control animals received a single intratumoral injection of 100 μl of 25% ethanol in 0.9% NaCl. Two radioactive animals and the control animals were then cared for in two separated cages and allowed to eat and drink at liberty.
On day 22, the two mice treated with Indium-111-oxine received 100 μl of Indium-111-Merc each in two places in tumors. The control animals also received two intratumoral injection of 0.05 M phosphate buffer pH−7.4.
As before, the mice were weighed daily and radioactivity remaining in their bodies was measured for an additional 10 days.

[2] = Body weight, additional studies; assay type: in vivo, nude mice; conditions: treatment period
Procedure: Human prostate and human breast tumors were grown in two separate groups of nude mice. Six mice in each group were divided in two subgroups of 3 mice each. Three mice were treated with intratumoral injections of either Indium-111-oxine or Indium-111-Merc. Each group of mice was then placed in rodent cages separately and cared for with regular diet and water ad lib. Each day the animals were weighed, and tumor diameter was measured three times with a Vernier caliper.

[3] = Distribution of radioactivity in tumor and organs at sacrifice; assay type: in vivo, nude mice
From the text: (§1) These organs were then weighed.

[4] = tested on: human prostate cancer cells DU145; conditions: one month
Procedure: Additional feasibility studies were performed using two lipid soluble agents, Indium-111-oxine and Indium-111-Mercaptopyridine-N-oxide (Merc). Human prostate and human breast tumors were grown in two separate groups of nude mice. Six mice in each group were divided in two subgroups of 3 mice each. Three mice were treated with intratumoral injections of either Indium-111-oxine or Indium-111-Merc. Each group of mice was then placed in rodent cages separately and cared for with regular diet and water ad lib. Each day the animals were weighed, and tumor diameter was measured three times with a Vernier caliper.
Radioactivity received by each animal was carefully measured, and each day the amount of radioactivity retained in the animal body was measured using an energy calibrated radiation dose calibrator. Two weeks after the first injection, a second dose of the same agent was readministered, also intratumorally and the procedure was followed as described above, for the next two weeks. […] Indium-111 associated with each tissue was counted, and the radioactivity distributed in each organ was calculated as the percent of the total radioactivity retrained in each animal. Histology on critical organs, such as the liver, bladder, and kidney, as well as tumor histology, was assessed in treated animals and in untreated control animals. […]

[5] = tested on: cells; conditions: cited from earlier work
[6] = Retention of radioactivity after intratumoral injection, first study (gamma camera, ionization chamber); assay type: in vivo, athymic nude mice
[7] = cited from earlier work
[8] = tested on: human breast cancer cells T47D; assay: Intratumoral injection study on T47D tumor-bearing nude mice: tumor size; assay type: in vivo; conditions: one month
Procedure: as §1
Indium-111-Merc was prepared also by a method described previously. (Thakur et al, J Nucl Med 26: 518-523, 1985). Briefly, to one ml 0.067 M phosphate buffer pH 7.4, a required quantity of Indium-111-chloride was added followed by 50 μg Merc in 50 μl 0.067 M phosphate buffer pH 7.4. The reaction mixture was vortexed, and resultant Indium-111-Merc was extracted in chloroform or methylene chloride. This was evaporated to dryness, and the complex was taken up in 50 μl ethanol and 150 μl 0.9% NaCl. A known amount of radioactivity in 50 μl was then injected directly into the tumor in each mouse.
For treatment with Indium-111-Merc, human breast cancer cells (5×10^6) T47D were implanted similarly. These were also allowed to grow to up to 0.5 cm in diameter.

Molecule	tumor growth in treated animal [1]	body weight change ([2]; DU145 tumor-bearing mice, on the average)	kidney uptake at sacrifice ([3]; DU145 tumor-bearing mice)	liver uptake at sacrifice ([3]; DU145 tumor-bearing mice)	injected activity retained in tumor at sacrifice ([3]; DU145 tumor-bearing mice, corrected for decay)	tumor growth in treated mice (tumor size versus time, FIG. 4) ([4]; DU145 tumor-bearing nude mice)	average tumor growth during the treatment period ([4]; DU145 tumors, two intratumoral doses two weeks apart, untreated mice 200%)	labeling of cells in the presence of plasma [5]	radioactivity retained in the tumor (gamma camera image) ([6]; 22 days after intratumoral Indium-111-oxine injection)	body weight change ([2]; T47D tumor-bearing mice)	stability in plasma [7]	injected activity retained in tumor at sacrifice ([3]; T47D tumor-bearing mice)	kidney activity at sacrifice ([3]; T47D tumor-bearing mice)	liver activity at sacrifice ([3]; T47D tumor-bearing mice)	radioactivity still in the tumor (gamma camera image) ([6]; 10 days after intratumoral Indium-111-Merc injection)	radioactivity retained in animal body ([6]; ten days after the injection of Indium-111-Merc)	tumor growth in treated mice (tumor size versus time, FIG. 5) ([8]; T47D tumor-bearing nude mice)	average tumor growth in the treated mice ([8]; T47D tumors, two intratumoral doses two weeks apart, untreated controls 477%)
[111In+3].[O-]c1cccc2cccnc12.[O-]c1cccc2cccnc12.[O-]c1cccc2cccnc12 [Indium-111-oxine, Indium-111-oxine (8-hydroxyquinoline)]	has not grown	none of the treated or untreated mice either gained or lost body weight	7.5%	5.4%	86.5%	arrested	117%	not capable of binding cells in plasma; also recorded: cannot efficiently label cells	a major proportion; also recorded: nearly all	–	–	–	–	–	–	–	–	–
Indium-111-Merc (2-Mercaptopyridine-N-oxide)	–	–	–	–	–	–	–	can label cells in the presence of plasma	–	gained some body weight	does not break down in plasma	92.97%	4.03%	1.02%	a major proportion	all	arrested	172%

Reference: patent US6685913B1, “Lipid soluble radioactive metal chelates for tumor therapy” (Thomas Jefferson University, priority 1999, dated 2004)
